The experiment concerns the target T1, human mAChR M4 (Homo sapiens, UniProt P08173).
T1 construct: expressed in transfected cells; host or cells: CHO-K1 (American Type Culture Collection), stably expressing hM4 and Gqi5
T1 sequence (P08173 1-479): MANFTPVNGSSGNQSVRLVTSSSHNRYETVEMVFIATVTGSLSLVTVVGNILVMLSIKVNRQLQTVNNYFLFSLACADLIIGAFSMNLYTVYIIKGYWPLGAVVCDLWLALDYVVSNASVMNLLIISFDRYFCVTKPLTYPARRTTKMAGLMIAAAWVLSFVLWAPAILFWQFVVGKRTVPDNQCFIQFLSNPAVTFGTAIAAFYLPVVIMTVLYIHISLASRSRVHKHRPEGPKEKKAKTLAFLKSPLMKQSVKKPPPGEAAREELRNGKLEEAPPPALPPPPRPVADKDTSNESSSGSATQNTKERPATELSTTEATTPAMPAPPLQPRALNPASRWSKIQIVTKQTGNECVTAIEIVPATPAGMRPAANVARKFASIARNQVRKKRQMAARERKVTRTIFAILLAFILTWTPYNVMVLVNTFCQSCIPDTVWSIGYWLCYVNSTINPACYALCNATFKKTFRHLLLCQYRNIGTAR
The experiment can be described thus: mAChR M4 cell-based functional assay: calcium mobilization (Fluo-4, FDSS), potentiation of EC20 acetylcholine response in hM4-Gqi5 CHO-K1 cells. Conditions: human M4; for Emax at 30 µM: CHO-K1, % ACh maximum at 30 μM; for pEC50: potentiation of EC20 acetylcholine response, calcium mobilization. The method in brief:
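CHO-K1 cells stably co-expressing human M4 and chimeric Gqi5, loaded with Fluo-4 AM (50 min, 37 °C). Compounds in 11-point 1:3 series added first; EC20 acetylcholine added at 144 s and again at 230 s. Calcium read on FDSS at 1 Hz; EC50 and Emax from four-parameter logistic fit of potentiated EC20 response.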
On the technique in general: A change in cytosolic calcium serves as a functional read-out for many receptors and channels.

pEC50: −log10 of the molar value.

For `Cc1cc(F)ccc1Nc1cnc2c(c1)CN(c1nn3c(=O)ccnc3cc1C)CC2` [Compound 2-65, 7-(3-((4-fluoro-2-methylphenyl)amino)-7,8-dihydro-1,6-naphthyridin-6(5H)-yl)-8-methyl-4H-pyrimido[1,2-b]pyridazin-4-one], the Emax at 30 µM was determined as 90% and the pEC50 is 7.00.
On the same counts, the results for `Cc1cc2nccc(=O)n2nc1N1CCc2ncc(N3CCOC(c4ccccc4)C3)cc2C1` (centres unmarked) [Compound 2-66, 8-methyl-7-(3-(2-phenylmorpholino)-7,8-dihydro-1,6-naphthyridin-6(5H)-yl)-4H-pyrimido[1,2-b]pyridazin-4-one] are 79% and 6.19.
On the same counts, the results for `Cc1cc2nccc(=O)n2nc1N1CCc2ncc(Nc3ccccc3Cl)cc2C1` [Compound 2-67, 7-(3-((2-chlorophenyl)amino)-7,8-dihydro-1,6-naphthyridin-6(5H)-yl)-8-methyl-4H-pyrimido[1,2-b]pyridazin-4-one] are 95% and 7.60.
On the same counts, the results for `Cc1cc2nccc(=O)n2nc1N1CCc2ncc(N3CCOC(C)(C)C3)cc2C1` [Compound 2-68, 7-(3-(2,2-dimethylmorpholino)-7,8-dihydro-1,6-naphthyridin-6(5H)-yl)-8-methyl-4H-pyrimido[1,2-b]pyridazin-4-one] are 96% and 6.95.
On to `Cc1ccc(F)cc1Nc1cnc2c(c1)CN(c1nn3c(=O)ccnc3cc1C)CC2` [Compound 2-69, 7-(3-((5-fluoro-2-methylphenyl)amino)-7,8-dihydro-1,6-naphthyridin-6(5H)-yl)-8-methyl-4H-pyrimido[1,2-b]pyridazin-4-one], for which the Emax at 30 µM was 96% and the pEC50 was 7.70.
In the case of `COc1ccc(F)c(Nc2cnc3c(c2)CN(c2nn4c(=O)ccnc4cc2C)CC3)c1` [Compound 2-70, 7-(3-((2-fluoro-5-methoxyphenyl)amino)-7,8-dihydro-1,6-naphthyridin-6(5/)-yl)-8-methyl-4H-pyrimido[1,2-b]pyridazin-4-one], the Emax at 30 µM came out at 94% and the pEC50 was 7.07.
The corresponding values for `Cc1cc2nccc(=O)n2nc1N1CCc2ncc(Nc3cccc(OC(F)F)c3)cc2C1` [Compound 2-71, 7-(3-((3-(difluoromethoxy)phenyl)amino)-7,8-dihydro-1,6-naphthyridin-6(5H)-yl)-8-methyl-4H-pyrimido[1,2-b]pyridazin-4-one] are 97% and 7.09.
The corresponding values for `Cc1cc2nccc(=O)n2nc1N1CCc2ncc(Nc3cccc4c3OCCO4)cc2C1` [Compound 2-72, 7-(3-((2,3-dihydrobenzo[b][1,4]dioxin-5-yl)amino)-7,8-dihydro-1,6-naphthyridin-6(5H)-yl)-8-methyl-4H-pyrimido[1,2-b]pyridazin-4-one] are 69% and 6.26.
On the same counts, the results for `COc1cc(F)ccc1Nc1cnc2c(c1)CN(c1nn3c(=O)ccnc3cc1C)CC2` [Compound 2-74, 7-(3-((4-fluoro-2-methoxyphenyl)amino)-7,8-dihydro-1,6-naphthyridin-6(5H)-yl)-8-methyl-4H-pyrimido[1,2-b]pyridazin-4-one] are 62% and 6.40.
Turning to `Cc1ccccc1Nc1cnc2c(c1)CN(c1nn3c(=O)ccnc3cc1C)CC2` [Compound 2-75, 8-methyl-7-(3-(o-tolylamino)-7,8-dihydro-1,6-naphthyridin-6(5H)-yl)-4H-pyrimido[1,2-b]pyridazin-4-one], the Emax at 30 µM came out at 93% and the pEC50 was 7.77.
The corresponding values for `Cc1cc2nccc(=O)n2nc1N1CCc2ncc(N3CCOC(c4ccccn4)C3)cc2C1` (centres unmarked) [Compound 2-76, 8-methyl-7-(3-(2-(pyridin-2-yl)morpholino)-7,8-dihydro-1,6-naphthyridin-6(5H)-yl)-4H-pyrimido[1,2-b]pyridazin-4-one] are 76% and 5.27.
The corresponding values for `Cc1cc2nccc(=O)n2nc1N1CCc2ncc(N3CCOC(c4cccnc4)C3)cc2C1` (centres unmarked) [Compound 2-77, 8-methyl-7-(3-(2-(pyridin-3-yl)morpholino)-7,8-dihydro-1,6-naphthyridin-6(5H)-yl)-4H-pyrimido[1,2-b]pyridazin-4-one] are 80% and 5.90.
The corresponding values for `Cc1cc2nccc(=O)n2nc1N1CCc2ncc(Nc3cccnc3F)cc2C1` [Compound 2-78, 7-(3-((2-fluoropyridin-3-yl)amino)-7,8-dihydro-1,6-naphthyridin-6(5H)-yl)-8-methyl-4H-pyrimido[1,2-b]pyridazin-4-one] are 103% and 6.99.
For the molecule `Cc1cc2nccc(=O)n2nc1N1CCc2ncc(Nc3cccc(F)c3)cc2C1` [Compound 2-79, 7-(3-((3-fluorophenyl)amino)-7,8-dihydro-1,6-naphthyridin-6(5H)-yl)-8-methyl-4H-pyrimido[1,2-b]pyridazin-4-one], the Emax at 30 µM came to 99% and the pEC50 is 7.70.
With `Cc1cc2nccc(=O)n2nc1N1CCc2ncc(Nc3cccc(C#N)c3)cc2C1` [Compound 2-80, 3-((6-(8-methyl-4-oxo-4H-pyrimido[1,2-b]pyridazin-7-yl)-5,6,7,8-tetrahydro-1,6-naphthyridin-3-yl)amino)benzonitrile], the Emax at 30 µM was 97% and the pEC50 was 7.33.
On the same counts, the results for `Cc1cc2nccc(=O)n2nc1N1CCc2ncc(Nc3cc(F)ccc3C#N)cc2C1` [Compound 2-81, 4-fluoro-2-((6-(8-methyl-4-oxo-4H-pyrimido[1,2-b]pyridazin-7-yl)-5,6,7,8-tetrahydro-1,6-naphthyridin-3-yl)amino)benzonitrile] are 85% and 6.64.
For the molecule `COc1cc(Cl)cc(Nc2cnc3c(c2)CN(c2nn4c(=O)ccnc4cc2C)CC3)c1` [Compound 2-82, 7-(3-((3-chloro-5-methoxyphenyl)amino)-7,8-dihydro-1,6-naphthyridin-6(5H)-yl)-8-methyl-4H-pyrimido[1,2-b]pyridazin-4-one], the Emax at 30 µM is 79% and the pEC50 is 6.31.
On the same counts, the results for `Cc1nc(-c2cccc(Nc3cnc4c(c3)CN(c3nn5c(=O)ccnc5cc3C)CC4)c2)cs1` [Compound 2-83, 8-methyl-7-(3-((3-(2-methylthiazol-4-yl)phenyl)amino)-7,8-dihydro-1,6-naphthyridin-6(5H)-yl)-4H-pyrimido[1,2-b]pyridazin-4-one] are 59% and 6.19.
`COc1cccc(C2CN(c3cnc4c(c3)CN(c3nn5c(=O)ccnc5cc3C)CC4)CCO2)c1` (centres unmarked) [Compound 2-84, 7-(3-(2-(3-methoxyphenyl)morpholino)-7,8-dihydro-1,6-naphthyridin-6(5H)-yl)-8-methyl-4H-pyrimido[1,2-b]pyridazin-4-one]: the maximum response (Emax) at 30 µM was 64% and the negative logarithm of the EC50 (pEC50) was 5.72.
Turning to `Cc1cc2nccc(=O)n2nc1N1CCc2ncc(N3CCc4ccccc43)cc2C1` [Compound 2-85, 7-(3-(indolin-1-yl)-7,8-dihydro-1,6-naphthyridin-6(5H)-yl)-8-methyl-4H-pyrimido[1,2-b]pyridazin-4-one], the Emax at 30 µM turned out to be 95% and the pEC50 is 7.66.
In the case of `Cc1cc2nccc(=O)n2nc1N1CCc2ncc(NCC3CCCOC3)cc2C1` (centres unmarked) [Compound 2-86, 8-methyl-7-(3-(((tetrahydro-2H-pyran-3-yl)methyl)amino)-7,8-dihydro-1,6-naphthyridin-6(5H)-yl)-4H-pyrimido[1,2-b]pyridazin-4-one], the Emax at 30 µM was 87% and the pEC50 was 5.74.
On the same counts, the results for `Cc1cc2nccc(=O)n2nc1N1CCc2ncc(Nc3ccc(F)nc3)cc2C1` [Compound 2-87, 7-(3-((6-fluoropyridin-3-yl)amino)-7,8-dihydro-1,6-naphthyridin-6(5H)-yl)-8-methyl-4H-pyrimido[1,2-b]pyridazin-4-one] are 99% and 6.64.
On the same counts, the results for `Cc1cc2nccc(=O)n2nc1N1CCc2ncc(Nc3cccnc3)cc2C1` [Compound 2-88, 8-methyl-7-(3-(pyridin-3-ylamino)-7,8-dihydro-1,6-naphthyridin-6(5H)-yl)-4H-pyrimido[1,2-b]pyridazin-4-one] are 106% and 6.76.
As to `Cc1cc2nccc(=O)n2nc1N1CCc2ncc(NCC3CC3)cc2C1` [Compound 2-89, 7-(3-((cyclopropylmethyl)amino)-7,8-dihydro-1,6-naphthyridin-6(5H)-yl)-8-methyl-4H-pyrimido[1,2-b]pyridazin-4-one], the Emax at 30 µM stood at 93% and the pEC50 was 6.48.
On to `Cc1cc2nccc(=O)n2nc1N1CCc2ncc(NCC(C)C)cc2C1` [Compound 2-90, 7-(3-(isobutylamino)-7,8-dihydro-1,6-naphthyridin-6(5H)-yl)-8-methyl-4H-pyrimido[1,2-b]pyridazin-4-one], for which the Emax at 30 µM came to 69% and the pEC50 is 6.10.

As a reminder, the Emax is the size of the effect at its maximum, as opposed to the concentration needed. The pEC50 is the negative decadic logarithm of the EC50, by convention in mol/L.

These data come from patent US20250101041A1, “POSITIVE ALLOSTERIC MODULATORS OF THE MUSCARINIC ACETYLCHOLINE RECEPTOR M4” (Vanderbilt University, priority 2022, published 2025).
